In US20230117034A1, “PYRAZOLOTRIAZINES” (Bayer Aktiengesellschaft, priority 2019, published 2023):

Assays:
[1] = biological target: T1, CDK12 (nuclear staining in CAL-120 cells) (Homo sapiens, UniProt Q9NYV4); assay: CDK12 nuclear protein level: immunofluorescence/high content analysis (CAL-120); format: cell-based; conditions: for DC50: CAL-120 cells, 24 h, immunofluorescence, 50% reduction of nuclear CDK12 staining intensity, median, read-out: CDK12 degradation IF, DC50- [mol/l] (median); for (IC50 CDK12 high ATP) to (Degradation DC50 CDK12) ratio: ratio of IC50 CDK12 high ATP kinase assay to DC50 CDK12 degradation (IF, CAL-120)
T1 construct: endogenous in cells; host or cells: CAL-120 human breast cancer cells (DSMZ ACC 459)
Summary of the method: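 DC50 is the degrader concentration that halves nuclear CDK12 immunofluorescence relative to controls, measured by high-content imaging. CAL-120 cells were exposed to compound for 24 h at 37 °C before PFA fixation, and signal was normalized to DMSO and control wells.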

[2] = system: MDA-MB-231, human breast cancer cells; assay: Proliferation assay MDA-MB-231 (crystal violet, 4 days); format: cell-based; conditions: Homo sapiens, MDA-MB-231, 96 h, MDA-MB-231 cells, median, read-out: Prolif-MDA MB-231, IC50-[mol/l] (median)
Description: Human tumour cells were originally obtained from the American Type Culture Collection (ATCC), or from the Deutsche Sammlung von Mikroorganismen und Zellkulturen (DSMZ, German Collection of Microorganisms and Cell Cultures). Cultivated tumour cells (CAL-120, human breast adenocarcinoma cells, DSMZ ACC-459; MDA-MB-231, human breast cancer cells, ATCC HTB-26) were plated at a density of 4,000 cells/well in a 96-well multititer plate in 200 microL of their respective growth medium supplemented 10% fetal calf serum. After 24 hours, the cells of one plate (zero-point plate) were stained with crystal violet (see below), while the medium of the other plates was supplemented with the test substances in various concentrations (0 micromol/L, as well as in the range of 0.01-10 micromol/L; the final concentration of the solvent dimethyl sulfoxide was adjusted to 0.1%) using a Tecan HP D300 Digital Dispenser. The cells were incubated for 4 days in the presence of test substances. Cell proliferation was determined by staining the cells with crystal violet: the cells were fixed by adding 20 microL/measuring point of an 11% glutaric aldehyde solution for 15 minutes at room temperature. After three washing cycles of the fixed cells with water, the plates were dried at room temperature. The cells were stained by adding 100 microL/measuring point of a 0.1% crystal violet solution (pH 3.0). After three washing cycles of the stained cells with water, the plates were dried at room temperature. The dye was dissolved by adding 100 microL/measuring point of a 10% acetic acid solution. The extinction was determined by photometry at a wavelength of 595 nm. The change of cell number, in percent, was calculated by normalization of the measured values to the extinction values of the zero-point plate (=0%) and the extinction of the untreated (0 μM) cells (=100%). The IC50 values (inhibitory concentration at 50% of maximal effect) were determined by means of a 4 parameter fit.

CDK9/CycT1 = biological target: T2, CDK9/CycT1 (Homo sapiens, UniProt P50750); assay: CDK9/CycT1 high ATP kinase assay (TR-FRET, 2 mM ATP); format: biochemical; conditions: 2 mM ATP (high ATP); median; read-out: CDK9/CyclinT1, 2 mM ATP (high ATP), IC50 (median)
T2 construct: Recombinant full-length His-tagged human CDK9 and CycT1; purchased Life Technologies PV4131; host or cells: insect cells
Summary of the method: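 Full-length His-tagged human CDK9/CycT1 (insect cell, ~0.5 μg/mL) preincubated 15 min at 22 °C with compound in Tris pH 8.0, MgCl2, DTT buffer before reaction with biotinylated peptide substrate at high ATP (2 mM).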

T2 sequence (P50750 whole entry): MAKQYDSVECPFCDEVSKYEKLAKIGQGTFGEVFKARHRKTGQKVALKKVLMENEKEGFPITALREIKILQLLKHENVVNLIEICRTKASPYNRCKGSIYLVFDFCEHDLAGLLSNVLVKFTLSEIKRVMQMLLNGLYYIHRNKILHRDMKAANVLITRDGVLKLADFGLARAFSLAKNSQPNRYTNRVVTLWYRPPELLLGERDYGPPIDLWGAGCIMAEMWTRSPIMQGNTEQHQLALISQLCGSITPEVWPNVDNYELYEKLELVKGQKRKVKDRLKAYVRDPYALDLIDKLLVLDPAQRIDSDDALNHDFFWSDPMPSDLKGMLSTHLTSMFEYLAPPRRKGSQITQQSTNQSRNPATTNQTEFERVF
T2 sequence (O60563 whole entry partner): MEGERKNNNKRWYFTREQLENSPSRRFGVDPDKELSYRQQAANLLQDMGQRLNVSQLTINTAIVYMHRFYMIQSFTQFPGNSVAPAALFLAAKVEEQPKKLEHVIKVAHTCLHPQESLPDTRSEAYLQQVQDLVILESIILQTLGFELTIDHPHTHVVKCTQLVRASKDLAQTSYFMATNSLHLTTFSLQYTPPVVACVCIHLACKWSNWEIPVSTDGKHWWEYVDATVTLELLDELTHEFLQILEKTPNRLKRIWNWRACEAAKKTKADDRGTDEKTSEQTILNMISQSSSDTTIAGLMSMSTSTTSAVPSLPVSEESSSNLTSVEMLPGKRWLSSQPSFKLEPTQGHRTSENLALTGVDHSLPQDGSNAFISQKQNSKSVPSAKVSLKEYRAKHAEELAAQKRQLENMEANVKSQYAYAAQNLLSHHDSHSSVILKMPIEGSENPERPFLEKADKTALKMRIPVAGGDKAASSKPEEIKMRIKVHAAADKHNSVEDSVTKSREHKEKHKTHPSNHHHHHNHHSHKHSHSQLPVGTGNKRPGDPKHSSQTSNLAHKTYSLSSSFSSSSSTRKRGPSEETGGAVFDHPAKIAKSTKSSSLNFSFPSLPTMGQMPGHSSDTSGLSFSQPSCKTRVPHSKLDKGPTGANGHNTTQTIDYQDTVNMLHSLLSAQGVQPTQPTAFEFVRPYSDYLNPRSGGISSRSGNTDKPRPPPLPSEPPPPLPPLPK
T1 sequence (Q9NYV4 whole entry): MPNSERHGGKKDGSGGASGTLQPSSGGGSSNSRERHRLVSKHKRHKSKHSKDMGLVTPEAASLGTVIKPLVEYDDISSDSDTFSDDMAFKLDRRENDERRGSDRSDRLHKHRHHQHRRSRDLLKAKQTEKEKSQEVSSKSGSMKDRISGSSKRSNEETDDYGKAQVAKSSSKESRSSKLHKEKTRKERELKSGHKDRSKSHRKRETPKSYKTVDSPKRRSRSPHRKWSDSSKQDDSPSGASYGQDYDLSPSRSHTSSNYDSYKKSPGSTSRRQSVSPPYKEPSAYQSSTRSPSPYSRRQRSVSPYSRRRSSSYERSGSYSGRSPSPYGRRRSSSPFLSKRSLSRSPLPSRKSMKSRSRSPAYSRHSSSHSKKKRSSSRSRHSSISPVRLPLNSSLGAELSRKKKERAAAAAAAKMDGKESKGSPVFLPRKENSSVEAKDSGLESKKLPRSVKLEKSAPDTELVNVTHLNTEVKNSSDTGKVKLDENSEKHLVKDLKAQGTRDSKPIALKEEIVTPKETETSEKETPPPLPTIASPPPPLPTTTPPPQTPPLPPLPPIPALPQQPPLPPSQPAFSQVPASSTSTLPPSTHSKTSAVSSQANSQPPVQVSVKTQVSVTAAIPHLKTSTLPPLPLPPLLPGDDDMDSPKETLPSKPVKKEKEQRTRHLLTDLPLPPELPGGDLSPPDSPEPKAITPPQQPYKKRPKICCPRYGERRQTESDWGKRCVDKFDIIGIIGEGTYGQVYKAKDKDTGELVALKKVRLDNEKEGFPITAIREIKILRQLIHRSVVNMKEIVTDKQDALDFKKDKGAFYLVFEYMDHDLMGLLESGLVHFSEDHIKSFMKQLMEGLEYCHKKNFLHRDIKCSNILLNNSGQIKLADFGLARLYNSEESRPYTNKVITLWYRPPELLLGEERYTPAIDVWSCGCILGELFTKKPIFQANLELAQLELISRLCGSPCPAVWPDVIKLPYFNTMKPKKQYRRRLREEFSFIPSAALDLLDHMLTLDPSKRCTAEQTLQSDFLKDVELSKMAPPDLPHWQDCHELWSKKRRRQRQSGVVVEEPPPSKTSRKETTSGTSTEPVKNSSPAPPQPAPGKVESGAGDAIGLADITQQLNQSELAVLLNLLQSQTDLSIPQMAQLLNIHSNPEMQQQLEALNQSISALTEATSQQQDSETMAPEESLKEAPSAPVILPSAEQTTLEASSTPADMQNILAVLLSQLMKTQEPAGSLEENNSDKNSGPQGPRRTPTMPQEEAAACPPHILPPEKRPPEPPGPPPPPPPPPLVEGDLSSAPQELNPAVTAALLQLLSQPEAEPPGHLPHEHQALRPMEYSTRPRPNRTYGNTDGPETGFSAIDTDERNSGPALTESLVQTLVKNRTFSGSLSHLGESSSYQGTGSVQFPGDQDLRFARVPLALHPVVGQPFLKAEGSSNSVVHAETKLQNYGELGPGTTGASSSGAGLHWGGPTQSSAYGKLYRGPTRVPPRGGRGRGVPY
T1 sequence (O75909 whole entry partner): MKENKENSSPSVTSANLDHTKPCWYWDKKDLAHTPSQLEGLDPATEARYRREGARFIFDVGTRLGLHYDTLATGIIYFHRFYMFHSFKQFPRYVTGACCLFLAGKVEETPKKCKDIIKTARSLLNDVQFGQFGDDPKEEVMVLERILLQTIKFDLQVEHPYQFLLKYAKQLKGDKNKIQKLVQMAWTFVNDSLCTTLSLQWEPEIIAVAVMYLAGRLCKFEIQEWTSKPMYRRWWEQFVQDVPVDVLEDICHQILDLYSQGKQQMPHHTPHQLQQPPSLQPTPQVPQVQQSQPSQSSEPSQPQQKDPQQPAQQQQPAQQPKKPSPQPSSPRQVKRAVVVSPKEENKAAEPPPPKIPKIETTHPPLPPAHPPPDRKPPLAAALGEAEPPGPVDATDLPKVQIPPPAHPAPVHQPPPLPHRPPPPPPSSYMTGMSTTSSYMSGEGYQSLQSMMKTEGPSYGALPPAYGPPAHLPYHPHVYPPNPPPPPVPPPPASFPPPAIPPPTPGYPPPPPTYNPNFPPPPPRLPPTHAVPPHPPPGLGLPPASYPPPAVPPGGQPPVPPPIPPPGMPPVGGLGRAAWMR

DC50 [1]	(IC50 CDK12 high ATP) to (Degradation DC50 CDK12) ratio [1]	IC50 [2]	IC50 (CDK9/CycT1)	SMILES
0.846 nM	8279	4.94 nM	> 20000 nM	CN1CCN(c2nc(NCc3nc4c(F)c(F)ccc4[nH]3)n3ncc(Br)c3n2)CC1 [Example 133, 8-bromo-N-[(4,5-difluoro-1H-benzimidazol-2-yl)methyl]-2-(4-methylpiperazin-1-yl)pyrazolo[1,5-a][1,3,5]triazin-4-amine]
0.991 nM	>17850	11.7 nM	> 20000 nM	CN1CCN(c2nc(NCc3nc4cc(F)ccc4[nH]3)n3ncc(Br)c3n2)CC1 [Example 134, 8-bromo-N-[(5-fluoro-1H-benzimidazol-2-yl)methyl]-2-(4-methylpiperazin-1-yl)pyrazolo[1,5-a][1,3,5]triazin-4-amine]
3.69 nM	3939	44 nM	> 20000 nM	C[C@@H]1CN(c2nc(NCc3nc4ccccc4[nH]3)n3ncc(Br)c3n2)CCN1C [Example 135, N-[(1H-benzimidazol-2-yl)methyl]-8-bromo-2-[(3R)-3,4-dimethylpiperazin-1-yl]pyrazolo[1,5-a][1,3,5]triazin-4-amine]
3.61 nM	1140	26.4 nM	1420 nM	CN1CCN(c2nc(NCc3nnc(-c4cccc(F)c4)[nH]3)n3ncc(Br)c3n2)CC1 [Example 136, 8-bromo-N-{[5-(3-fluorophenyl)-4H-1,2,4-triazol-3-yl]methyl}-2-(4-methylpiperazin-1-yl)pyrazolo[1,5-a][1,3,5]triazin-4-amine]
10.8 nM	1196	192 nM	> 20000 nM	CCN1CCN(c2nc(NCc3nc4ccccc4[nH]3)n3ncc(Br)c3n2)CC1 [Example 137, N-[(1H-benzimidazol-2-yl)methyl]-8-bromo-2-(4-ethylpiperazin-1-yl)pyrazolo[1,5-a][1,3,5]triazin-4-amine]
76 nM	>263	556 nM	> 20000 nM	Brc1cnn2c(NCc3nc4ccccc4[nH]3)nc(N3CCN(C4CC4)CC3)nc12 [Example 138, N-[(1H-benzimidazol-2-yl)methyl]-8-bromo-2-(4-cyclopropylpiperazin-1-yl)pyrazolo[1,5-a][1,3,5]triazin-4-amine]
110 nM	140	539 nM	> 20000 nM	FC(F)(F)CN1CCN(c2nc(NCc3nc4ccccc4[nH]3)n3ncc(Br)c3n2)CC1 [Example 139, N-[(1H-benzimidazol-2-yl)methyl]-8-bromo-2-[4-(2,2,2-trifluoroethyl)piperazin-1-yl]pyrazolo[1,5-a][1,3,5]triazin-4-amine]
58.3 nM	140	315 nM	> 20000 nM	C[C@@H]1CCCCN1c1nc(NCc2nc3ccccc3[nH]2)n2ncc(Br)c2n1 [Example 140, N-[(1H-benzimidazol-2-yl)methyl]-8-bromo-2-[(2R)-2-methylpiperidin-1-yl]pyrazolo[1,5-a][1,3,5]triazin-4-amine]
6.11 nM	214	37.8 nM	12900 nM	C[C@H]1CCCCN1c1nc(NCc2nc3ccccc3[nH]2)n2ncc(Br)c2n1 [Example 141, N-[(1H-benzimidazol-2-yl)methyl]-8-bromo-2-[(2S)-2-methylpiperidin-1-yl]pyrazolo[1,5-a][1,3,5]triazin-4-amine]
1.62 nM	6679	23.7 nM	> 20000 nM	C[C@@H]1CN(c2nc(NCc3nc4ccccc4[nH]3)n3ncc(Br)c3n2)C[C@H](C)N1 [Example 142, N-(1H-benzimidazol-2-ylmethyl)-8-bromo-2-[(3R,5S)-3,5-dimethylpiperazin-1-yl]pyrazolo[1,5-a][1,3,5]triazin-4-amine]
30.9 nM	>646	827 nM	> 20000 nM	Brc1cnn2c(NCc3nc4ccccc4[nH]3)nc(N3CCC3)nc12 [Example 143, 2-(azetidin-1-yl)-N-[(1H-benzimidazol-2-yl)methyl]-8-bromopyrazolo[1,5-a][1,3,5]triazin-4-amine]
6.32 nM	590	185 nM	> 20000 nM	[O-][S+]1CCN(c2nc(NCc3nc4ccccc4[nH]3)n3ncc(Br)c3n2)CC1 [Example 144, 4-(4-{[(1H-benzimidazol-2-yl)methyl]amino}-8-bromopyrazolo[1,5-a][1,3,5]triazin-2-yl)-1lambda^4-thiomorpholin-1-one]
16.8 nM	751	1620 nM	> 20000 nM	N=S1(=O)CCN(c2nc(NCc3nc4ccccc4[nH]3)n3ncc(Br)c3n2)CC1 [Example 145, 4-(4-{[(1H-benzimidazol-2-yl)methyl]amino}-8-bromopyrazolo[1,5-a][1,3,5]triazin-2-yl)-1-imino-1lambda^6-thiomorpholin-1-one]
3.82 nM	2320	43.3 nM	> 20000 nM	Brc1cnn2c(NCc3nc4ccccc4[nH]3)nc(N3C[C@@H]4CCCN[C@@H]4C3)nc12 [Example 146, N-[(1H-benzimidazol-2-yl)methyl]-8-bromo-2-[(4aS,7aS)-octahydro-6H-pyrrolo[3,4-b]pyridin-6-yl]pyrazolo[1,5-a][1,3,5]triazin-4-amine]
13.9 nM	359	317 nM	> 20000 nM	OCC1CCN1c1nc(NCc2nc3ccccc3[nH]2)n2ncc(Br)c2n1 (stereo not shown) [Example 147, [1-[4-(1H-benzimidazol-2-ylmethylamino)-8-bromo-pyrazolo[1,5-a][1,3,5]triazin-2-yl]azetidin-2-yl]methanol]
12.6 nM	495	276 nM	> 20000 nM	Brc1cnn2c(NCc3nc4ccccc4[nH]3)nc(N3CCN4CCC[C@@H]4C3)nc12 [Example 149, N-[(1H-benzimidazol-2-yl)methyl]-8-bromo-2-[(8aR)-hexahydropyrrolo[1,2-a]pyrazin-2 (1 H)-yl]pyrazolo[1,5-a][1,3,5]triazin-4-amine]
1.31 nM	2033	38.9 nM	> 20000 nM	Cc1cccc2[nH]c(CNc3nc(N4CCOCC4)nc4c(Br)cnn34)nc12 [Example 150, 8-bromo-N-[(4-methyl-1H-benzimidazol-2-yl)methyl]-2-(morpholin-4-yl)pyrazolo[1,5-a][1,3,5]triazin-4-amine]
2.07 nM	2046	37.2 nM	> 20000 nM	Cc1cccc2[nH]c(CNc3nc(N4CCN(C)CC4)nc4c(Br)cnn34)nc12 [Example 151, 8-bromo-N-[(4-methyl-1H-benzimidazol-2-yl)methyl]-2-(4-methylpiperazin-1-yl)pyrazolo[1,5-a][1,3,5]triazin-4-amine]
12.7 nM	236	12.7 nM	1990 nM	Fc1cccc(-c2nnc(CNc3nc(N4CCNCC4)nc4c(Br)cnn34)[nH]2)c1 [Example 152, 8-bromo-N-{[5-(3-fluorophenyl)-4H-1,2,4-triazol-3-yl]methyl}-2-(piperazin-1-yl)pyrazolo[1,5-a][1,3,5]triazin-4-amine]
